Patent publication US20070254035A1, “Preparing Active Polymer Extrudates” (priority 2003, published 2007)

Legend:
[1] = test system: lysozyme; assay: Standard activity assay of lysozyme liberated from the CO2-processed polymer extrudate; format: biochemical; settings: Example 6: poly(D,L-lactic acid) MW 71,000 : enzyme ca. 20:1 w/w, CO2 ca. 35° C., 300 bar; compared to lysozyme that has not undergone processing
Procedure: (§1) Poly(D,L-lactic acid) (MW 71,000) and lysozyme enzyme powder are added to a high pressure autoclave at a defined ratio (ca. 20:1 weight for weight). The autoclave is charged with carbon dioxide at a defined temperature and pressure (ca. 35° C., 300 bar) sufficient to ensure plasticization of the polymer by carbon dioxide and the contents are mixed together. Discharging of the contents into a second autoclave at atmospheric pressure, through a longer angled nozzle, yields a solid fibrous-mesh product, containing lysozyme, of similar morphology to Example 1. Upon liberation from the polymer the biological activity of lysozyme is unaffected by the carbon dioxide processing compared to lysozyme that has not undergone processing. Standard activity assays described in the literature are used to determine the lysozyme activity.

[2] = test system: ribonuclease; assay: Standard activity assay of ribonuclease liberated from the CO2-processed polymer extrudate; format: biochemical; settings: Example 5: poly(D,L-lactic acid) MW 71,000 : enzyme ca. 20:1 w/w, CO2 ca. 35° C., 300 bar; compared to ribonuclease that has not undergone processing
Procedure: as §1, with “ribonuclease” for “lysozyme”, “ribonuclease,” for “lysozyme,”

Row | Substance | biological activity of lysozyme upon liberation from the polymer [1] | biological activity of ribonuclease upon liberation from the polymer [2]
1 | lysozyme | unaffected | 
2 | ribonuclease |  | unaffected
